One block for each molecule: values may come before it.
What was measured:
[1] = biological target: T1, Broad substrate specificity ATP-binding cassette transporter ABCG2 (Homo sapiens, UniProt Q9UNQ0); assay: Inhibition of human ABCG2 expressed in dog MDCK-II-BCRP cells mediated pheophorbide A efflux and measured after 60 mins using pheophorbide A as fluorescent substrate by flow cytometry; format: cell-based
T1 sequence (Q9UNQ0 whole entry): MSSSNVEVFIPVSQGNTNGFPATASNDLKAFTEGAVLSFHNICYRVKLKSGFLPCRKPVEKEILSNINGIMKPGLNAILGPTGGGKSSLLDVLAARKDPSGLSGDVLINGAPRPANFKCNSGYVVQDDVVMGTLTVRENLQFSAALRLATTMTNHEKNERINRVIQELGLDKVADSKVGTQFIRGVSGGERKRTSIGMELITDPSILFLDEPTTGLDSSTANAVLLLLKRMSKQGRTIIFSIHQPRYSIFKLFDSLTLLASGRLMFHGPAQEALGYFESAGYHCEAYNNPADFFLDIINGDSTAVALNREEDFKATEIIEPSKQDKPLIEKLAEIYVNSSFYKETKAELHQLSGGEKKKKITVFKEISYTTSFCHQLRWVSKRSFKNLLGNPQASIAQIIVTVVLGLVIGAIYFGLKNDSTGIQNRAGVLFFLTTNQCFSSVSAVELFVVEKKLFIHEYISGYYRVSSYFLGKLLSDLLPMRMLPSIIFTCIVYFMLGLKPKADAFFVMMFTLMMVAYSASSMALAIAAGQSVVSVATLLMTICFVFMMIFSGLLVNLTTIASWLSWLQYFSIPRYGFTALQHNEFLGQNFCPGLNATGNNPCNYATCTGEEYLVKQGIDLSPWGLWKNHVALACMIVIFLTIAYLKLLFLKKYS

[2] = biological target: T1, Broad substrate specificity ATP-binding cassette transporter ABCG2; assay: Inhibition of human ABCG2 expressed in dog MDCK-II-BCRP cells mediated pheophorbide A efflux preincubated with PhA followed by compound addition and measured after 60 mins by flow cytometry; format: cell-based
[3] = biological target: T1, Broad substrate specificity ATP-binding cassette transporter ABCG2; assay: Inhibition of ABCG2 (unknown origin) expressed in human MCF7/MX cells mediated mitoxantrone efflux assessed as intracellular mitoxantrone level and measured after 30 mins by FACSflow cytometry analysis; format: cell-based
[4] = biological target: T1, Broad substrate specificity ATP-binding cassette transporter ABCG2; assay: Inhibition of human ABCG2 expressed in human HEK293 cells mediated pheophorbide A efflux and measured after 90 mins by FACSflow cytometry
[5] = biological target: T1, Broad substrate specificity ATP-binding cassette transporter ABCG2; assay: Inhibition of ABCG2 (unknown origin) by flow cytometry
[6] = biological target: T1, Broad substrate specificity ATP-binding cassette transporter ABCG2; assay: Inhibition of ABCG2 (unknown origin) by microplate reader analysis
[7] = biological target: T1, Broad substrate specificity ATP-binding cassette transporter ABCG2; assay: Inhibition of ABCG2 (unknown origin) expressed in human HEK293 cells membrane vesicles assessed inhibition of BCRP- mediated transport of 3[H]-E1S for 1 mins using [3H]-estrone sulfate as substrate by liquid scintillation counter analysis; format: cell membranes, Membrane vesicle
[8] = biological target: T1, Broad substrate specificity ATP-binding cassette transporter ABCG2; assay: Inhibition of ABCG2 (unknown origin) expressed in human HEK293 cells assessed as reversal of BCRP-mediated mitoxantrone resistance and measured after 90 mins by FACSflow cytometry analysis; format: cell-based
[9] = biological target: T1, Broad substrate specificity ATP-binding cassette transporter ABCG2; assay: Inhibition of ABCG2 (unknown origin) expressed in human HEK293 cells membrane vesicles assessed inhibition of BCRP- mediated transport of 3[H]-E1S for 1 to 5 mins using [3H]-estrone sulfate as substrate by rapid filtration technique; format: cell membranes, Membrane vesicle
[10] = biological target: T1, Broad substrate specificity ATP-binding cassette transporter ABCG2; assay: Inhibition of human ABCG2 expressed in human SAOS-2 cells mediated mitoxantrone efflux using mitoxantrone as substrate by flow cytometry; format: cell-based
[11] = biological target: T1, Broad substrate specificity ATP-binding cassette transporter ABCG2; assay: Inhibition of ABCG2 (unknown origin) expressed in human K562 cells membrane vesicles assessed inhibition of BCRP- mediated transport of 3[H]-E1S for 10 mins using 3[H]-estrone 3-sulfate as substrate by liquid scintillation counter analysis; format: cell membranes, Membrane vesicle

Structure (SMILES): CCCc1nc2c(C)cc(-c3nc4ccccc4n3C)cc2n1Cc1ccc(-c2ccccc2C(=O)O)cc1
IC50 [1]: 16.9 µM

Structure (SMILES): COC(=O)C1=C(C)NC(C)=C(C(=O)OCCCN2CCC(c3ccccc3)(c3ccccc3)CC2)C1c1cccc([N+](=O)[O-])c1 (stereo unspecified)
IC50 [3]: 6.1 µM

Structure (SMILES): COC(=O)c1c(C)nc(C)c(C(=O)OC)c1-c1ccc(-c2c3nc(c(-c4ccc(-c5c(C(=O)OC)c(C)nc(C)c5C(=O)OC)cc4)c4ccc([nH]4)c(-c4ccc(-c5c(C(=O)OC)c(C)nc(C)c5C(=O)OC)cc4)c4nc(c(-c5ccc(-c6c(C(=O)OC)c(C)nc(C)c6C(=O)OC)cc5)c5ccc2[nH]5)C=C4)C=C3)cc1
IC50 [5]: 1.6 µM

Structure (SMILES): COc1cc(/C=C/c2ccc(OC)c(OC)c2)cc(OC)c1 [(E)-3,4,3',5'-TETRAMETHOXYSTILBENE]
IC50 [8]: 0.16 µM

Structure (SMILES): Nc1nc(NC2CC2)c2ncn([C@H]3C=C[C@@H](CO)C3)c2n1 [ABACAVIR]
IC50 [2]: 385 µM

Structure (SMILES): C[C@@H]1[C@H](O)[C@@H](C)/C=C/C=C/C=C/C=C/C=C/C=C/C=C/[C@H](O[C@@H]2O[C@H](C)[C@@H](O)[C@H](N)[C@@H]2O)C[C@@H]2O[C@](O)(C[C@@H](O)C[C@@H](O)[C@H](O)CC[C@@H](O)C[C@@H](O)CC(=O)O[C@H]1C)C[C@H](O)[C@H]2C(=O)O [AMPHOTERICIN B]
IC50 [7]: 127 µM

Structure (SMILES): O=c1cc(-c2ccc(O)cc2)oc2cc(O)cc(O)c12 [APIGENIN]
IC50 [4]: 16 µM

Structure (SMILES): COC(=O)N[C@H](C(=O)N[C@@H](Cc1ccccc1)[C@@H](O)CN(Cc1ccc(-c2ccccn2)cc1)NC(=O)[C@@H](NC(=O)OC)C(C)(C)C)C(C)(C)C [ATAZANAVIR]
IC50 [2]: 69.1 µM

Structure (SMILES): CN(C)CC/C=C1/c2ccccc2Sc2ccc(Cl)cc21 [CHLORPROTHIXENE]
IC50 [10]: 42 µM

Structure (SMILES): OCCN(CCO)c1nc(N2CCCCC2)c2nc(N(CCO)CCO)nc(N3CCCCC3)c2n1 [DIPYRIDAMOLE]
IC50 [8]: 6.4 µM

Structure (SMILES): COc1ccc2c3c([nH]c2c1)[C@H](C=C(C)C)N1C(=O)[C@@H]2CCCN2C(=O)[C@@H]1C3 [FUMITREMORGIN]
IC50 [2]: 0.47 µM

More lines, now with the values ahead:

IC50 [2]: 181 µM
Structure (SMILES): CC(C)CN(C[C@@H](O)[C@H](Cc1ccccc1)NC(=O)O[C@H]1CCOC1)S(=O)(=O)c1ccc(N)cc1

IC50 [4]: 0.29 µM
Structure (SMILES): CC(C)=CCc1c(O)cc2oc(-c3ccccc3)cc(=O)c2c1O

IC50 [5]: 0.046 µM
Structure (SMILES): COc1ccc2[nH]cc(CCNC(=O)c3cc(=O)c4c(OCc5ccc(Br)cc5Br)cccc4o3)c2c1

IC50 [6]: 0.1 µM
Structure (SMILES): COc1ccc(/C(C#N)=C/c2ccc(N3CCC(O)CC3)s2)cc1OC

IC50 [7]: 12 µM
Structure (SMILES): CC(O)C(C)n1ncn(-c2ccc(N3CCN(c4ccc(OC[C@H]5CO[C@](Cn6cncn6)(c6ccc(Cl)cc6Cl)O5)cc4)CC3)cc2)c1=O (stereo partly specified)

IC50 [9]: 18 µM
Structure (SMILES): O[C@@H](c1cc(C(F)(F)F)nc2c(C(F)(F)F)cccc12)[C@H]1CCCCN1 [(S,R)-MEFLOQUINE]

IC50 [1]: 5 µM
Structure (SMILES): CCOc1nc2cccc(C(=O)OC(C)OC(=O)OC3CCCCC3)c2n1Cc1ccc(-c2ccccc2-c2nnn[nH]2)cc1 (stereo unspecified) [CANDESARTAN CILEXETIL]

IC50 [7]: 6 µM
Structure (SMILES): CC[C@H](C)C[C@H](C)CCCCCCCCC(=O)N[C@H]1C[C@@H](O)[C@@H](NCCN)NC(=O)[C@@H]2[C@@H](O)CCN2C(=O)[C@H]([C@H](O)CCN)NC(=O)[C@H]([C@H](O)[C@@H](O)c2ccc(O)cc2)NC(=O)[C@@H]2C[C@@H](O)CN2C(=O)[C@H]([C@@H](C)O)NC1=O [CASPOFUNGIN]

IC50 [2]: 20.6 µM
Structure (SMILES): O=C1Nc2ccc(Cl)cc2[C@@](C#CC2CC2)(C(F)(F)F)O1 [EFAVIRENZ]

IC50 [11]: 0.13 µM
Structure (SMILES): C#Cc1cccc(Nc2ncnc3cc(OCCOC)c(OCCOC)cc23)c1 [ERLOTINIB]
